# Earlier results as cited in US11077086B2, “Solid dosage form composition for buccal or sublingual administration of cannabinoids” (PHARMACEUTICAL PRODUCTIONS, INC., priority 2014, dated 2021).
# Test system: cannabinoid receptor
smiles,measurement,value
"C=C(C)[C@@H]1CCC(C)=C[C@H]1c1c(O)cc(CCCCC)cc1O [cannabidiol (CBD), cannabidiol]",affinity for the cannabinoid receptor,do not have significant affinity
